GI50 and TGI data for eight compounds are collected here from PubChem BioAssay (NCI).

By GI50 is commonly meant the concentration giving 50% growth inhibition. Usually TGI stands for the concentration giving total growth inhibition. A low value points to more potent growth arrest.

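Compound exposure: 48 hours, 5 concentrations, 96-well plates. GI50 is the concentration that inhibits growth by half. TGI: concentration producing complete growth inhibition.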

Test in all cases: DTP human tumour cell line panel, 48 h
The subject of experiment [1] is ACHN renal.
Experiment [2] relates to HCT-116 colon.
Experiment [3] deals with HS 578T breast.
In experiment [4] the test system is LOX IMVI melanoma.
For experiment [5], the system named is M14 melanoma.
Experiment [6] deals with MOLT-4 leukemia.
Experiment [7] concerns SK-OV-3 ovarian.
Experiment [8] concerns SW-620 colon.
Experiment [9] relates to RPMI-8226 leukemia.
The test system of experiment [10] is SF-268 CNS.

With `C[C@H]1[C@H](C)CC[C@]2(C(=O)NCCNCCN)CC[C@]3(C)C(=CC[C@@H]4[C@@]5(C)CCC(=O)C(C)(C)[C@@H]5CC[C@]43C)[C@H]12`, the GI50 in experiment [1] was 1760 nM; in [2] it was 1710 nM; in experiment [3], 1700 nM; in [4] it was 1710 nM; in [5], 1790 nM; in [6], 2200 nM. The figures for the GI50 in experiment [7] and in [8] were 6910 nM and 1840 nM, respectively. Further, the TGI in [1] worked out at 3270 nM; in [2], 3180 nM; in [3], 3740 nM; in [4], 3130 nM; in experiment [5], 3410 nM; in experiment [6], 4730 nM. Also, the TGI amounted to 33200 nM in experiment [7] and 3470 nM in experiment [8].
Take `Cn1c(/C(C#N)=C/c2ccc3ccccc3c2)cc2ccccc21`: the 50% growth inhibitory concentration (GI50) is 125 nM in [1]; 77.4 nM in experiment [2]; 162 nM in [3]; 120 nM in [4]; 104 nM in experiment [5]; 468 nM in experiment [6]. For the same compound, the GI50 in [9] was 311 nM; in experiment [7], more than 100000 nM; in experiment [8], 93.5 nM. Moreover, the TGI in [1], in experiment [2], in [3], in [4], in [5] and in [6] was more than 100000 nM throughout. Besides, the TGI in [9], in [7] and in experiment [8] was more than 100000 nM throughout.
As to `C=CCO/N=C/c1cc(NC(=S)c2ccoc2C)ccc1Cl`, the TGI in experiment [1] was 19400 nM; in experiment [2], more than 100000 nM; in experiment [3] it was 64400 nM; in experiment [4] it was 44500 nM; in [5] it was 37900 nM; in [6] it was 29400 nM. Also, the TGI in experiment [9] was 12100 nM; in experiment [10], 36000 nM; in experiment [7], 36200 nM; in experiment [8], more than 100000 nM.
`CCC(=C(c1ccc(OCCCN(C)C)cc1)c1ccc(OCCCN(C)C)cc1)c1ccc(Cl)cc1`: the GI50 in experiment [1] was 469 nM; in experiment [2], 447 nM; in experiment [3] it was 2300 nM; in experiment [4], 287 nM; in [5] it was 302 nM; in [6], 379 nM. Further, the GI50 in experiment [9] was 366 nM; in [10] it was 1040 nM; in [7] it was 2810 nM; in experiment [8], 314 nM. Moreover, the total growth inhibition concentration (TGI) in [1] was 1360 nM; in experiment [2], 1150 nM; in experiment [3] it was 5350 nM; in experiment [4] it was 541 nM; in [5], 577 nM; in experiment [6], 948 nM. Besides, the TGI in [9] was 871 nM; in experiment [10], 2720 nM; in experiment [7], 5360 nM; in experiment [8], 648 nM.
Consider `CCCCCCCCCCCCCCCCCCNC(=O)[C@H]1CSC(c2cccs2)N1` (some centres undefined), for which the GI50 in experiment [1] was 30900 nM; in [2], 945 nM; in experiment [3], 1170 nM; in experiment [4], 834 nM; in [5] it was 868 nM; in [6], 974 nM. Moreover, the GI50 in experiment [9] is 985 nM; in experiment [10], 1110 nM; in experiment [7], 4510 nM; in experiment [8], 881 nM. Besides, the total growth inhibition concentration (TGI) in experiment [1] is more than 50000 nM; in [2], 1800 nM; in [3], 2980 nM; in experiment [4], 2020 nM; in [5], 1660 nM; in experiment [6] it was 15700 nM. In addition, the TGI in [9] was determined as 2410 nM; in experiment [10], 2340 nM; in experiment [7], 18300 nM; in experiment [8] it was 1910 nM.
As for `c1ccc(Cn2cnc3ccc(-c4nc(-c5ccc6c(c5)ncn6C5CCCCC5)cn5ccnc45)cc32)cc1`, the GI50 in experiment [1] was 3080 nM; in [3], 2710 nM; in experiment [6], 1670 nM; in experiment [9], 1150 nM; in experiment [10] it was 2480 nM. In addition, the concentration for total growth inhibition (TGI) in experiment [1] was more than 100000 nM; in experiment [3] it was more than 100000 nM; in experiment [6], more than 100000 nM; in experiment [9] it was 4500 nM; in [10] it was more than 100000 nM.
Take `COCCOCCOCc1n(Cc2ccc3ccccc3n2)c2ccccc2[n+]1Cc1ccc2ccccc2c1`: the GI50 in experiment [1] was 2040 nM; in [2] it was 402 nM; in experiment [3], 964 nM; in [4], 333 nM; in experiment [5], 414 nM; in experiment [6] it was 470 nM. Further, the 50% growth inhibitory concentration (GI50) in experiment [9] is 185 nM; in [10], 464 nM; in [7], 501 nM; in experiment [8] it was 769 nM. The TGI in experiment [1] was 5680 nM; in [2] it was 2060 nM; in experiment [3], 3660 nM; in [4], 1240 nM; in experiment [5] it was 1940 nM; in experiment [6] it was 2520 nM. Moreover, the TGI in experiment [9] stood at 1330 nM; in [10], 1850 nM; in [7] it was 2680 nM; in experiment [8], 5370 nM.
For `C=C(CN1CCc2ccccc2C1)c1ccc(C(=O)Nc2ccccc2N)cc1`, the GI50 in experiment [1] is 1010 nM; in experiment [2], 1930 nM; in [3], 3700 nM; in experiment [4], 316 nM; in [5] it was 1730 nM; in experiment [6], 720 nM. Also, the GI50 in experiment [9] is 793 nM; in [10], 1870 nM; in experiment [7], 1080 nM; in [8], 1870 nM. The total growth inhibition concentration (TGI) was 3500 nM in experiment [1]; more than 23200 nM in experiment [2]; 36500 nM in [3]; 1200 nM in [4]; 18400 nM in [5]; 2030 nM in experiment [6]. Further, the TGI in [9] was more than 12900 nM; in experiment [10], 9740 nM; in experiment [7], 3170 nM; in [8], more than 42800 nM.
